This note sets out measurements from ChEMBL document CHEMBL1201862, “PubChem BioAssay data set” (2004).

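In this assay, cells in 96-well plates receive the compound at five concentrations for 48 hours. Endpoints are linearly interpolated between the surrounding concentrations. The concentration for 50% growth inhibition is given as GI50.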 Activity calls are given as the source filed them. No stated cut-off is given here; in the data, active = GI50 up to about 1.1 µM and inactive = higher.

Among the test systems are HCC 2998; RXF 393; COLO 205; NCI/ADR-RES; RPMI-8226; UACC-62; MOLT-4; SF-268; HCT-116; SN12C; CCRF-CEM; A549; SK-MEL-5; NCI-H522; LOX IMVI; HCT-15; SW-620; HL-60; UO-31; CAKI-1.
Common to all, as to experiment: inhibition of tumour cell growth, NCI panel, 48 h

As for `c1ccc(CSC2(SCc3ccccc3)CCCC2)cc1`, the GI50 with HCC 2998, with RXF 393, with COLO 205, in the assay with NCI/ADR-RES, with RPMI-8226 and in the assay on UACC-62 was > 10 µM (inactive) each time. Also, the GI50 in the assay on MOLT-4, with SF-268, in the assay on HCT-116, in the assay on SN12C, in the assay with CCRF-CEM and with A549 was > 10 µM (inactive) in each case. Moreover, the GI50 with SK-MEL-5 was > 10 µM (inactive); in the assay with NCI-H522, > 10 µM (inactive); in the assay on LOX IMVI, > 10 µM (inactive); in the assay on HCT-15 it was more than 10 µM; in the assay on SW-620 it was > 10 µM (inactive); in the assay with HL-60, > 10 µM (inactive). The GI50 in the assay with UO-31 and in the assay on CAKI-1 was > 10 µM (inactive) throughout.

Regarding `CC1(C)CC(=O)C2=C(C1)OC1=C(CC(C)(C)CC1=O)C2c1ccccc1[N+](=O)[O-]` (stereo not given), the GI50 in the assay on HCC 2998, in the assay on RXF 393, in the assay with COLO 205, in the assay on NCI/ADR-RES, with RPMI-8226 and in the assay with UACC-62 was > 100 µM (inactive) each time. For the same compound, the GI50 with MOLT-4, with SF-268, in the assay on HCT-116, with SN12C, in the assay on CCRF-CEM and in the assay on A549 was > 100 µM (inactive) in each case. The GI50 was > 100 µM (inactive) in the assay on SK-MEL-5; > 100 µM (inactive) with NCI-H522; > 100 µM (inactive) in the assay on LOX IMVI; more than 100 µM in the assay with HCT-15; > 100 µM (inactive) in the assay on SW-620; > 100 µM (inactive) with HL-60. Further, the GI50 was 2 µM (inactive) with UO-31 and > 100 µM (inactive) in the assay with CAKI-1.

`c1ccc(C(NC2=NCCO2)c2ccccc2)cc1`: the GI50 in the assay on HCC 2998, in the assay on RXF 393, in the assay with COLO 205, in the assay on NCI/ADR-RES, in the assay on RPMI-8226 and in the assay with UACC-62 was > 10 µM (inactive) throughout. Moreover, the GI50 with MOLT-4, in the assay with SF-268, with HCT-116, in the assay on SN12C, in the assay with CCRF-CEM and with A549 was > 10 µM (inactive) throughout. In addition, the GI50 was > 10 µM (inactive) in the assay on SK-MEL-5; > 10 µM (inactive) with NCI-H522; > 10 µM (inactive) in the assay on LOX IMVI; more than 10 µM in the assay on HCT-15; > 10 µM (inactive) with SW-620; > 10 µM (inactive) in the assay with HL-60. The GI50 in the assay with UO-31 and in the assay with CAKI-1 was > 10 µM (inactive) throughout.

Take `O=C(O)Cc1cc(F)ccc1C(=O)O`: the GI50 with HCC 2998 was > 100 µM (inactive); in the assay with RXF 393, 58.5 µM (inactive); in the assay with COLO 205, > 100 µM (inactive); in the assay on NCI/ADR-RES, > 100 µM (inactive); in the assay with RPMI-8226 it was > 100 µM (inactive); in the assay with UACC-62 it was > 100 µM (inactive). Also, the GI50 in the assay on MOLT-4, in the assay with SF-268, in the assay with HCT-116, in the assay on SN12C, in the assay with CCRF-CEM and with A549 was > 100 µM (inactive) in each case. Further, the GI50 in the assay with SK-MEL-5 was > 100 µM (inactive); with NCI-H522, 92 µM (inactive); in the assay on LOX IMVI it was > 100 µM (inactive); with HCT-15, 73.5 µM; with SW-620, > 100 µM (inactive); in the assay with HL-60, > 100 µM (inactive). In addition, the GI50 in the assay with UO-31 was > 100 µM (inactive); with CAKI-1 it was 31 µM (inactive).

For `Cc1nc2ccccc2n1C(=O)c1c(F)c(F)c(F)c(F)c1F`, the GI50 is 17.6 µM (inactive) in the assay with HCC 2998; 15.5 µM (inactive) in the assay on RXF 393; 14.8 µM (inactive) with COLO 205; 17.5 µM (inactive) with NCI/ADR-RES; 4.15 µM (inactive) with RPMI-8226; 16.1 µM (inactive) in the assay on UACC-62. The GI50 was 4.07 µM (inactive) in the assay with MOLT-4; 27 µM (inactive) in the assay on SF-268; 4.14 µM (inactive) with HCT-116; 6.01 µM (inactive) with SN12C; 5.12 µM (inactive) with CCRF-CEM; 30.4 µM (inactive) with A549. Besides, the GI50 in the assay on SK-MEL-5 was 12.1 µM (inactive); with NCI-H522, 3.01 µM (inactive); with LOX IMVI it was 8.93 µM (inactive); in the assay with HCT-15, 11.2 µM; with SW-620, 5.09 µM (inactive); with HL-60, 4.49 µM (inactive). Also, the GI50 in the assay on UO-31 is 17 µM (inactive); in the assay on CAKI-1, 16.7 µM (inactive).

`C[N+](C)([O-])CCOc1cc2c(c3ccccc13)-c1ccccc1C2=O`: the GI50 was 13.7 µM (inactive) with HCC 2998; 17.7 µM (inactive) in the assay on RXF 393; 16.3 µM (inactive) with COLO 205; 14.3 µM (inactive) in the assay on NCI/ADR-RES; 12.3 µM (inactive) in the assay with RPMI-8226; 14.4 µM (inactive) in the assay on UACC-62. Moreover, the GI50 in the assay with MOLT-4 was 3.46 µM (inactive); in the assay with SF-268 it was 10.9 µM (inactive); in the assay with HCT-116, 6.25 µM (inactive); in the assay with SN12C, 9.08 µM (inactive); with CCRF-CEM, 8.2 µM (inactive); with A549, 23.3 µM (inactive). Also, the GI50 is 14.4 µM (inactive) in the assay with SK-MEL-5; 10.2 µM (inactive) in the assay on NCI-H522; 4.31 µM (inactive) in the assay on LOX IMVI; 28.2 µM in the assay on HCT-15; 12.3 µM (inactive) with SW-620; 14.3 µM (inactive) in the assay with HL-60. Besides, the results for the GI50 in the assay with UO-31 and in the assay with CAKI-1 were 17.8 µM (inactive) and 21.5 µM (inactive), respectively.

For `CN(C)CCNC(=O)c1cccc2ccc(-c3ccc(F)cc3)nc12`, the GI50 is 6.46 µM (inactive) in the assay on HCC 2998; 7.38 µM (inactive) with RXF 393; 2.43 µM (inactive) in the assay on COLO 205; 3.18 µM (inactive) in the assay on NCI/ADR-RES; 3.31 µM (inactive) with RPMI-8226; 3.95 µM (inactive) in the assay on UACC-62. The GI50 in the assay with MOLT-4 was 1.94 µM (inactive); in the assay with SF-268, 5.27 µM (inactive); with HCT-116, 3.03 µM (inactive); in the assay on SN12C, 4.85 µM (inactive); with CCRF-CEM, 2.86 µM (inactive); with A549, 3.13 µM (inactive). In addition, the GI50 was 3.34 µM (inactive) in the assay with SK-MEL-5; 3.91 µM (inactive) with NCI-H522; 3.32 µM (inactive) in the assay with LOX IMVI; 3.85 µM with HCT-15; 3.08 µM (inactive) in the assay with SW-620; 2.29 µM (inactive) in the assay on HL-60. Moreover, the GI50 with UO-31 is 2.61 µM (inactive); in the assay with CAKI-1 it was 2.69 µM (inactive).
